No end group written: not given here.
Tests used:
[1] = Immunogenicity of TCBL peptides judged by development of antibodies that react to the peptides; format: in vivo; settings: judged by the lack of developing antibodies that react to these peptides
Text: (§1) The antigenic portion My-1 of these constructs is immunogenic in several strains of mice and in rabbits.

several strains of mice = assay: Immunogenicity in mice; format: in vivo
Text: as §1

rabbits = assay: Immunogenicity in rabbits; format: in vivo
Text: as §1

A/J strain of mice = settings: injected in the presence of adjuvant; cited from earlier work

Substance	immunogenicity [1]	immunogenicity (several strains of mice)	immunogenicity (rabbits)	induction of myocarditis (A/J strain of mice)
Asn Gly Gln Glu Glu (Xaa) Ala Gly Val Val Ser Thr Gly Leu Ile [m-G]	only poorly immunogenic	–	–	–
NGQEEKAGVVSTGLI (peptide G) [non-modified TCBL from the beta-2 domain of HLA/MHC class II molecule]	only poorly immunogenic	–	–	–
DSAFDVLSFTAEEKAGVYK [myocardiogenic peptide derived from murine cardiac myosin heavy chain (amino acids 334–352)]	–	immunogenic	immunogenic	induce severe myocarditis
Asp Leu Leu Lys Asn Gly Glu Arg (Xaa) Glu Lys Val Glu [m-J]	only poorly immunogenic	–	–	–
